Test results from PubChem BioAssay (NCI).
Several values for one entry are separate records, joined by “and”; a condition that tells them apart may be missing. Equal entries are not always repeated.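 Growth conditions: 96-well plates. Treatment: test compound, 48 hours, 5 concentrations. Analysis: linear interpolation between bracketing concentrations; unreached endpoints set to highest concentration. GI50 is the concentration that inhibits growth by half. TGI: concentration producing complete growth inhibition.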

Key:
Assay in all cases: NCI tumour cell line growth inhibition, 48 h
786-0 renal = system: 786-0 renal
ACHN renal = system: ACHN renal
BT-549 breast = system: BT-549 breast
CAKI-1 renal = system: CAKI-1 renal
DMS 114 small cell lung = system: DMS 114 small cell lung
DU-145 prostate = system: DU-145 prostate
HCT-116 colon = system: HCT-116 colon
HOP-18 NSCLC = system: HOP-18 NSCLC
M14 melanoma = system: M14 melanoma
MALME-3M melanoma = system: MALME-3M melanoma
MDA-MB-231 breast = system: MDA-MB-231 breast
MDA-MB-435 = system: MDA-MB-435
MDA-N = system: MDA-N
MOLT-4 leukemia = system: MOLT-4 leukemia
NCI-H226 lung = system: NCI-H226 lung
NCI-H23 lung = system: NCI-H23 lung
P388 leukemia = system: P388 leukemia
P388/ADR leukemia = system: P388/ADR leukemia
PC-3 prostate = system: PC-3 prostate
SF-539 CNS = system: SF-539 CNS
SNB-19 CNS = system: SNB-19 CNS
SR leukemia = system: SR leukemia
T-47D breast = system: T-47D breast
TK-10 renal = system: TK-10 renal
UO-31 renal = system: UO-31 renal
A498 renal = system: A498 renal
A549 NSCLC = system: A549 NSCLC
CCRF-CEM leukemia = system: CCRF-CEM leukemia
COLO 205 colon = system: COLO 205 colon
DLD-1 colon = system: DLD-1 colon
DMS 273 small cell lung = system: DMS 273 small cell lung
EKVX NSCLC = system: EKVX NSCLC
HCT-15 colon = system: HCT-15 colon
HL-60(TB) leukemia = system: HL-60(TB) leukemia
HOP-62 NSCLC = system: HOP-62 NSCLC
HOP-92 NSCLC = system: HOP-92 NSCLC
HT29 colon = system: HT29 colon
IGROV1 ovarian = system: IGROV1 ovarian
K-562 leukemia = system: K-562 leukemia
KM12 colon = system: KM12 colon
KM20L2 colon = system: KM20L2 colon
LOX IMVI melanoma = system: LOX IMVI melanoma
LXFL 529 NSCLC = system: LXFL 529 NSCLC
M19-MEL melanoma = system: M19-MEL melanoma
NCI-H460 lung = system: NCI-H460 lung
NCI-H522 lung = system: NCI-H522 lung
OVCAR-3 ovarian = system: OVCAR-3 ovarian
OVCAR-4 ovarian = system: OVCAR-4 ovarian
OVCAR-5 ovarian = system: OVCAR-5 ovarian
OVCAR-8 ovarian = system: OVCAR-8 ovarian
RPMI-8226 leukemia = system: RPMI-8226 leukemia
RXF 393 renal = system: RXF 393 renal
RXF-631 renal = system: RXF-631 renal
SF-268 CNS = system: SF-268 CNS
SF-295 CNS = system: SF-295 CNS
SK-MEL-2 melanoma = system: SK-MEL-2 melanoma
SK-MEL-28 melanoma = system: SK-MEL-28 melanoma
SK-MEL-5 melanoma = system: SK-MEL-5 melanoma
SK-OV-3 ovarian = system: SK-OV-3 ovarian
SN12C renal = system: SN12C renal
SNB-75 CNS = system: SNB-75 CNS
SNB-78 CNS = system: SNB-78 CNS
SW-620 colon = system: SW-620 colon
U251 CNS = system: U251 CNS
UACC-257 melanoma = system: UACC-257 melanoma
UACC-62 melanoma = system: UACC-62 melanoma
XF 498 CNS = system: XF 498 CNS

C[C@@H]1O[C@@H](O[C@H]2CC[C@]3(C=O)[C@H]4CC[C@]5(C)[C@@H](c6ccc(=O)oc6)CC[C@]5(O)[C@@H]4CC[C@]3(O)C2)[C@H](O)[C@H](O)[C@H]1O[C@@H]1O[C@H](CO)[C@@H](O)[C@H](O)[C@H]1O
TGI (786-0 renal): 16.4 nM and 17.4 nM | TGI (ACHN renal): 19.5 nM and 23.3 nM | GI50 (BT-549 breast): 25.2 nM | TGI (BT-549 breast): 28.5 nM and 70.1 nM | GI50 (CAKI-1 renal): 37.5 nM | TGI (CAKI-1 renal): 32.2 nM and 25.1 nM and 37.9 nM | GI50 (DMS 114 small cell lung): < 0.000375 nM | GI50 (DU-145 prostate): 12.9 nM | TGI (DU-145 prostate): 8.37 nM and 42.4 nM | TGI (HCT-116 colon): 35.8 nM and 19.4 nM | TGI (HOP-18 NSCLC): 21.9 nM | GI50 (M14 melanoma): 30.4 nM | TGI (M14 melanoma): 48.3 nM and 125 nM | GI50 (MALME-3M melanoma): 14.2 nM and 20.6 nM | TGI (MALME-3M melanoma): 34.3 nM and 47.7 nM | TGI (MDA-MB-231 breast): 129 nM | GI50 (MDA-MB-435): 26.1 nM | TGI (MDA-MB-435): 34.4 nM and 62 nM | GI50 (MDA-N): 17.3 nM | TGI (MDA-N): 59.5 nM and 33.3 nM | TGI (MOLT-4 leukemia): 14.4 nM and 70.8 nM | GI50 (NCI-H226 lung): 40.9 nM | TGI (NCI-H226 lung): 57.6 nM and 43.7 nM and 93.3 nM | GI50 (NCI-H23 lung): < 0.000375 nM | TGI (P388 leukemia): 176000 nM | TGI (P388/ADR leukemia): 355000 nM | GI50 (PC-3 prostate): 17.8 nM | TGI (PC-3 prostate): 28.5 nM and 33.6 nM | TGI (SF-539 CNS): 21 nM and 24.5 nM | GI50 (SNB-19 CNS): 30.1 nM and 37.5 nM | TGI (SNB-19 CNS): 141 nM and 118 nM and 64.3 nM | TGI (SR leukemia): 868 nM | GI50 (T-47D breast): 24 nM | TGI (T-47D breast): 46.5 nM and 56.4 nM | GI50 (TK-10 renal): 13.2 nM | TGI (TK-10 renal): 16 nM and 56.9 nM | GI50 (UO-31 renal): 37.5 nM | TGI (UO-31 renal): 51.2 nM and 47.9 nM

CN(C)/C=N\c1ccnc(=O)[nH]1
TGI (786-0 renal): > 100000 nM | TGI (A498 renal): > 100000 nM | TGI (A549 NSCLC): > 100000 nM | TGI (ACHN renal): > 100000 nM | TGI (CAKI-1 renal): > 100000 nM | TGI (CCRF-CEM leukemia): > 100000 nM | TGI (COLO 205 colon): > 100000 nM | TGI (DLD-1 colon): > 100000 nM | TGI (DMS 114 small cell lung): > 100000 nM | TGI (DMS 273 small cell lung): > 100000 nM | TGI (EKVX NSCLC): > 100000 nM | TGI (HCT-116 colon): > 100000 nM | TGI (HCT-15 colon): > 100000 nM | TGI (HL-60(TB) leukemia): > 100000 nM | TGI (HOP-18 NSCLC): > 100000 nM | TGI (HOP-62 NSCLC): > 100000 nM | TGI (HOP-92 NSCLC): > 100000 nM | TGI (HT29 colon): > 100000 nM | TGI (IGROV1 ovarian): > 100000 nM | TGI (K-562 leukemia): > 100000 nM | TGI (KM12 colon): > 100000 nM | TGI (KM20L2 colon): > 100000 nM | TGI (LOX IMVI melanoma): > 100000 nM | TGI (LXFL 529 NSCLC): > 100000 nM | TGI (M14 melanoma): > 100000 nM | TGI (M19-MEL melanoma): > 100000 nM | TGI (MALME-3M melanoma): > 100000 nM | TGI (NCI-H226 lung): > 100000 nM | TGI (NCI-H460 lung): > 100000 nM | TGI (NCI-H522 lung): > 100000 nM | TGI (OVCAR-3 ovarian): > 100000 nM | TGI (OVCAR-4 ovarian): > 100000 nM | TGI (OVCAR-5 ovarian): > 100000 nM | TGI (OVCAR-8 ovarian): > 100000 nM | TGI (RPMI-8226 leukemia): > 100000 nM | TGI (RXF 393 renal): > 100000 nM | TGI (RXF-631 renal): > 100000 nM | TGI (SF-268 CNS): > 100000 nM | TGI (SF-295 CNS): > 100000 nM | TGI (SF-539 CNS): > 100000 nM | TGI (SK-MEL-2 melanoma): > 100000 nM | TGI (SK-MEL-28 melanoma): > 100000 nM | TGI (SK-MEL-5 melanoma): > 100000 nM | TGI (SK-OV-3 ovarian): > 100000 nM | TGI (SN12C renal): > 100000 nM | TGI (SNB-75 CNS): > 100000 nM | TGI (SNB-78 CNS): > 100000 nM | TGI (SW-620 colon): > 100000 nM | TGI (TK-10 renal): > 100000 nM | TGI (U251 CNS): > 100000 nM | TGI (UACC-257 melanoma): > 100000 nM | TGI (UACC-62 melanoma): > 100000 nM | TGI (UO-31 renal): > 100000 nM | TGI (XF 498 CNS): > 100000 nM
